Data reported in the supplement of paper PMC10307832.

Experiments:
Test in all cases: relative viability (nuclei count vs DMSO), 5 days (fraction); higher = more cells survive
Dovitinib + Vorinostat = compound: CN1CCN(c2ccc3nc(-c4c(N)c5c(F)cccc5[nH]c4=O)[nH]c3c2)CC1 [Dovitinib] + O=C(CCCCCCC(=O)Nc1ccccc1)NO [Vorinostat] (partner 1 µM)
Method in brief: (§1)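 Lung cancer cell lines were pin-tool dosed in 1536-well plates on the day after seeding, with either a lone drug or a fixed anchor-drug dose plus five library-drug doses (not always all listed) in √10 steps. Nuclei were counted on 4× images after 5 days. Relative viability is the ratio of treated-well to vehicle-well nuclei counts, with each value a median of duplicate plates.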

Dovitinib + Dasatinib = compound: CN1CCN(c2ccc3nc(-c4c(N)c5c(F)cccc5[nH]c4=O)[nH]c3c2)CC1 [Dovitinib] + Cc1nc(Nc2ncc(C(=O)Nc3c(C)cccc3Cl)s2)cc(N2CCN(CCO)CC2)n1 [Dasatinib] (partner 0.075 µM)
Method in brief: as §1

Dovitinib + Pictilisib = compound: CN1CCN(c2ccc3nc(-c4c(N)c5c(F)cccc5[nH]c4=O)[nH]c3c2)CC1 [Dovitinib] + CS(=O)(=O)N1CCN(Cc2cc3nc(-c4cccc5[nH]ncc45)nc(N4CCOCC4)c3s2)CC1 [Pictilisib] (partner 1 µM)
Method in brief: as §1

Dovitinib + Crizotinib = compound: CN1CCN(c2ccc3nc(-c4c(N)c5c(F)cccc5[nH]c4=O)[nH]c3c2)CC1 [Dovitinib] + C[C@@H](Oc1cc(-c2cnn(C3CCNCC3)c2)cnc1N)c1c(Cl)ccc(F)c1Cl [Crizotinib] (partner 1 µM)
Method in brief: as §1

Cell Line	relative viability (Dovitinib + Vorinostat; first compound 0.02 µM)	relative viability (Dovitinib + Vorinostat; first compound 0.06325 µM)	relative viability (Dovitinib + Vorinostat; first compound 0.2 µM)	relative viability (Dovitinib + Vorinostat; first compound 0.6325 µM)	relative viability (Dovitinib + Vorinostat; first compound 2 µM)	relative viability (Dovitinib + Dasatinib; first compound 0.02 µM)	relative viability (Dovitinib + Dasatinib; first compound 0.06325 µM)	relative viability (Dovitinib + Dasatinib; first compound 0.2 µM)	relative viability (Dovitinib + Dasatinib; first compound 0.6325 µM)	relative viability (Dovitinib + Dasatinib; first compound 2 µM)	relative viability (Dovitinib + Pictilisib; first compound 0.02 µM)	relative viability (Dovitinib + Pictilisib; first compound 0.06325 µM)	relative viability (Dovitinib + Pictilisib; first compound 0.2 µM)	relative viability (Dovitinib + Pictilisib; first compound 0.6325 µM)	relative viability (Dovitinib + Pictilisib; first compound 2 µM)	relative viability (Dovitinib + Crizotinib; first compound 0.02 µM)	relative viability (Dovitinib + Crizotinib; first compound 0.06325 µM)	relative viability (Dovitinib + Crizotinib; first compound 0.2 µM)	relative viability (Dovitinib + Crizotinib; first compound 0.6325 µM)	relative viability (Dovitinib + Crizotinib; first compound 2 µM)
NCI-H1666	1.15	0.919	1.11	1.04	1.05	0.767	0.839	0.845	0.799	0.762	0.607	0.533	0.548	0.322	0.375	0.966	1.14	1.08	0.964	1.04
NCI-H1734	0.832	0.773	0.784	0.785	0.875	0.431	0.501	0.436	0.439	0.452	0.475	0.457	0.413	0.437	0.397	0.635	0.664	0.637	0.598	0.643
NCI-H1755	0.798	0.83	0.884	0.935	0.776	0.446	0.388	0.45	0.393	0.443	0.494	0.399	0.465	0.452	0.46	0.861	0.878	0.834	0.852	0.86
NCI-H1915	0.469	0.502	0.531	0.499	0.531	0.317	0.308	0.313	0.278	0.353	0.877	0.893	0.912	0.891	0.961	0.854	0.886	0.838	0.922	0.841
NCI-H1944	0.502	0.702	0.646	0.583	0.64	0.214	0.21	0.208	0.212	0.228	0.325	0.332	0.335	0.33	0.36	1.02	1.13	1.05	1.08	1.18
NCI-H1975	0.692	0.728	0.662	0.734	0.682	0.346	0.348	0.408	0.364	0.453	0.299	0.271	0.325	0.324	0.274	0.898	0.934	1.02	0.937	0.95
NCI-H1993	0.929	0.754	0.823	0.76	0.943	0.748	0.634	0.599	0.684	0.261	0.762	0.886	0.825	0.819	0.787	0.917	0.818	0.811	1.04	0.942
NCI-H2009	0.72	0.744	0.747	0.736	0.829	0.261	0.269	0.336	0.299	0.354	0.781	0.74	0.795	0.854	0.725	0.919	1.06	1.04	1.03	1.12
NCI-H2023	0.532	0.745	0.818	0.683	0.579	0.56	0.565	0.612	0.578	0.58	0.216	0.206	0.236	0.261	0.212	0.55	0.604	0.591	0.573	0.481
NCI-H2085	0.808	0.821	0.819	0.765	0.801	0.234	0.261	0.235	0.248	0.319	0.553	0.465	0.443	0.502	0.451	0.753	0.904	0.851	0.856	0.9
NCI-H2087	0.817	0.79	0.685	0.837	0.803	0.836	0.847	0.869	0.889	0.98	1.05	0.907	0.845	0.907	0.892	0.817	0.66	0.878	0.796	0.778
NCI-H2126	0.811	0.819	0.798	0.876	0.838	0.599	0.596	0.766	0.622	0.623	0.476	0.462	0.463	0.559	0.504	1.03	1.04	1.05	1.02	1.08
NCI-H2170	0.752	0.783	0.819	0.839	0.783	0.552	0.566	0.608	0.599	0.552	0.268	0.337	0.318	0.265	0.322	1.12	1.23	1.23	1.14	1.2
NCI-H2228	0.559	0.81	0.402	0.79	0.6	0.549	0.624	0.495	0.435	0.588	0.317	0.345	0.335	0.462	0.271	0.399	0.379	0.436	0.454	0.367
NCI-H2347	0.694	0.647	0.561	0.692	0.686	0.317	0.276	0.322	0.303	0.33	0.888	0.676	0.947	0.895	0.677	0.784	0.653	0.79	0.961	0.676
NCI-H2405	0.99	0.961	1.07	1.06	1.17	0.201	0.222	0.174	0.204	0.235	0.431	0.372	0.458	0.456	0.408	0.87	0.762	0.862	0.773	0.935
